{"source": "ChEMBL document CHEMBL3286140", "about": "“Synthesis and biological evaluation of salpichrolide analogs as antiestrogenic agents” (Eur J Med Chem, 2014)", "key": {"MDA-MB-231 [1]": {"system": "MDA-MB-231", "test": "Cytotoxicity against ERalpha negative human MDA-MB-231 cells at 10 nM and 1 uM", "assay_type": "cell-based", "settings": "mda-mb-231, 0.01 µM"}, "MCF7 [2]": {"system": "MCF7", "test": "Inhibition of 17beta-estradiol-induced in ERalpha positive human MCF7 cells proliferation assessed as [3H]-thymidine incorporation after 72 hrs by liquid scintillation counting", "assay_type": "functional, cell-based"}, "MCF7 [3]": {"system": "MCF7", "test": "Cytotoxicity against ERalpha positive human MCF7 cells at 10 nM and 1 uM", "assay_type": "cell-based", "settings": "mcf7, 0.01 µM"}, "MCF7 [4]": {"system": "MCF7", "test": "Inhibition of 17beta-estradiol-induced in ERalpha positive human MCF7 cells proliferation assessed as [3H]-thymidine incorporation at 1 uM after 72 hrs by liquid scintillation counting", "assay_type": "functional, cell-based"}, "MCF7 [5]": {"system": "MCF7", "test": "Inhibition of 17beta-estradiol-induced in ERalpha positive human MCF7 cells proliferation assessed as [3H]-thymidine incorporation at 100 nM after 72 hrs by liquid scintillation counting", "assay_type": "functional, cell-based"}, "MDA-MB-231 [6]": {"system": "MDA-MB-231", "test": "Inhibition of 17beta-estradiol-induced in ERalpha negative human MDA-MB-231 cells proliferation assessed as [3H]-thymidine incorporation after 72 hrs by liquid scintillation counting", "assay_type": "functional, cell-based"}, "MCF7 [7]": {"system": "MCF7", "test": "Inhibition of 17beta-estradiol-induced in ERalpha positive human MCF7 cells proliferation assessed as [3H]-thymidine incorporation at 10 nM after 72 hrs by liquid scintillation counting", "assay_type": "functional, cell-based"}}, "note": "The source made the active and inactive calls. No cut-off for these calls is given here."}
{"molecule": "C[C@@H](c1cc(O)c2c(c1)CC[C@H]1[C@H]2C[C@@H]2O[C@@]23CC=CC(=O)[C@]13C)[C@@H]1C[C@@H]2O[C@@H]2[C@H](O)O1", "note": "[SALPICHROLIDE G]", "values": [{"measurement": "Activity", "setting": "MDA-MB-231 [1]", "result": "Toxic"}, {"measurement": "IC50", "setting": "MCF7 [2]", "result": 140, "unit": "nM"}, {"measurement": "Activity", "setting": "MCF7 [3]", "result": "Toxic"}]}
{"molecule": "CC(=O)c1ccc2c(c1)CC[C@H]1[C@H]2CC[C@H]2CC=C[C@H](O)[C@@]21C", "values": [{"measurement": "inhibition", "setting": "MCF7 [4]", "result": "inactive"}]}
{"molecule": "CC(=O)c1ccc2c(c1)CC[C@H]1[C@H]2CC[C@H]2CC=CC(=O)[C@@]21C", "values": [{"measurement": "inhibition", "setting": "MCF7 [5]", "result": "Active"}, {"measurement": "IC50", "setting": "MCF7 [2]", "result": 50, "unit": "nM"}, {"measurement": "inhibition", "setting": "MDA-MB-231 [6]", "result": "inactive"}]}
{"molecule": "CC(=O)c1ccc2c(c1)CC[C@H]1[C@H]2C[C@H]2O[C@]23C[C@@H](O)CC[C@]13C", "values": [{"measurement": "inhibition", "setting": "MCF7 [4]", "result": "inactive"}]}
{"molecule": "C[C@]12CC[C@@H]3c4ccc(O)cc4C[C@@H](CCCCCCCCC[S+]([O-])CCCC(F)(F)C(F)(F)F)[C@H]3[C@@H]1CC[C@@H]2O", "note": "(stereo not given in full) [FULVESTRANT]", "values": [{"measurement": "inhibition", "setting": "MCF7 [7]", "result": "Active"}, {"measurement": "IC50", "setting": "MCF7 [2]", "result": 1.9, "unit": "nM"}]}
{"molecule": "C[C@@H](c1ccc2c(c1)CC[C@H]1[C@H]2C[C@@H]2O[C@@]23CC=C[C@H](O)[C@]13C)[C@H]1C[C@]2(C)O[C@]2(C)[C@H](O)O1", "values": [{"measurement": "IC50", "setting": "MCF7 [2]", "result": 18, "unit": "nM"}]}
{"molecule": "CC(=O)c1ccc2c(c1)CC[C@H]1[C@H]2CC[C@H]2C[C@@H](O)CC[C@@]21C", "values": [{"measurement": "inhibition", "setting": "MCF7 [5]", "result": "Active"}, {"measurement": "IC50", "setting": "MCF7 [2]", "result": 330, "unit": "nM"}, {"measurement": "inhibition", "setting": "MDA-MB-231 [6]", "result": "inactive"}]}
{"molecule": "CC(=O)c1ccc2c(c1)CC[C@H]1[C@H]2C[C@@H]2O[C@@]23C[C@@H](O)CC[C@]13C", "values": [{"measurement": "inhibition", "setting": "MCF7 [2]", "result": "inactive"}]}
